# Values of other authors in article PMC7155743 (The journal of physical chemistry. B, 2019).
# Entries after “also recorded” stand apart in the source; their conditions may differ.
# Key:
# [1] = aqueous solution
# [2] = not given; remark: listed apart in the source
appearance of peptide in water at 1 mg/mL,solubility (qualitative) [2],Substance,aggregation state by DOSY [1],"fibrillization after incubation in water for 3 h ([2]; water, 3 h)"
clear solutions,,D2Q10K2 [DQ10],predominately monomeric; also recorded: predominantly monomeric,
clear solutions,,D2Q10K2 [NDQ10],predominately monomeric; also recorded: predominantly monomeric,
,,K2Q9PGQ4AQ4PGQ9PGQ9K2 [NDPGQ9A],,do not observe signs of NDPGQ9A fibrillization
,insoluble,K2Q9PGQ4AQ4PGQ9PGQ9K2 [PGQ9A],,
